Values quoted from earlier work in patent US10610591B2, “Light responsive quantum dot drug delivery system” (Nanoco Technologies Ltd., priority 2017, dated 2020).

How the values were obtained:
[1] = not given; remark: listed apart in the source
[2] = pH 7.4

CC(C)(C#N)c1cc(Cn2cncn2)cc(C(C)(C)C#N)c1 [anastrozole, alpha,alpha,alpha′,alpha′-tetramethyl-5-(1H,1,2,4-triazol-1-ylmethyl)-m-benzenediacetonitrile]
log P (log Po/w, log Poct/wat, log Pexp) (octanol/water): 2.4

7-Ethyl-10-hydroxycamptothecin
solubility in DMSO ([1]; DMSO): 2000 µg/mL | solubility in water ([1]; water): essentially insoluble in water

CC1=C(CC(=O)O)c2cc(F)ccc2/C1=C\c1ccc([S+](C)[O-])cc1 (centres unmarked) [sulindac]
log D7.4 [2]: 0.12 | log P^N (neutral) (neutral): 3.60
